Assay results from patent US10231954B2, “Neurodegenerative therapies” (LYTIX BIOPHARMA AS, priority 2014, dated 2019).

Key:
Assay type in all cases: biochemical
MKK1 = MKK1 (Homo sapiens, UniProt Q02750); assay: Kinase profiling MKK1; conditions: 100 micromolar inhibitor concentration, 100 is no change; for remaining activity at 100 µM: read-out: residual kinase activity, MKK1
Description: (§1) Any value less that 25 is considered to be highly significant inhibition.

Lck = Lck (Homo sapiens, UniProt P06239); assay: Kinase profiling Lck; conditions: 100 micromolar inhibitor concentration, 100 is no change; for remaining activity at 100 µM: read-out: residual kinase activity, Lck
Description: as §1

IGF-1R = IGF-1R (Homo sapiens, UniProt P08069); assay: Kinase profiling IGF-1R; conditions: 100 micromolar inhibitor concentration, 100 is no change; for remaining activity at 100 µM: read-out: residual kinase activity, IGF-1R
Description: as §1

SmMLCK = SmMLCK (Homo sapiens, UniProt Q15746); assay: Kinase profiling SmMLCK; conditions: 100 micromolar inhibitor concentration, 100 is no change; for remaining activity at 100 µM: read-out: residual kinase activity, SmMLCK
MARK3 = MARK3 (Homo sapiens, UniProt P27448); assay: Kinase profiling MARK3; conditions: 100 micromolar inhibitor concentration, 100 is no change; for remaining activity at 100 µM: read-out: residual kinase activity, MARK3
Description: as §1

ROCK 2 = ROCK 2 (Homo sapiens, UniProt O75116); assay: Kinase profiling ROCK 2; conditions: 100 micromolar inhibitor concentration, 100 is no change; for remaining activity at 100 µM: read-out: residual kinase activity, ROCK 2
Description: as §1

p38a MAPK = p38a MAPK (Homo sapiens, UniProt Q16539); assay: Kinase profiling p38a MAPK; conditions: 100 micromolar inhibitor concentration, 100 is no change; for remaining activity at 100 µM: read-out: residual kinase activity, p38a MAPK
Description: as §1

PKA = PKA (Homo sapiens, UniProt P17612); assay: Kinase profiling PKA; conditions: 100 micromolar inhibitor concentration, 100 is no change; for remaining activity at 100 µM: read-out: residual kinase activity, PKA
Description: as §1

TBK1 = target: T1, TBK1 (Homo sapiens, UniProt Q9UHD2); assay: Kinase profiling TBK1; conditions: 100 micromolar inhibitor concentration, 100 is no change; for remaining activity at 100 µM: read-out: residual kinase activity, TBK1
T1 sequence (Q9UHD2 1-729): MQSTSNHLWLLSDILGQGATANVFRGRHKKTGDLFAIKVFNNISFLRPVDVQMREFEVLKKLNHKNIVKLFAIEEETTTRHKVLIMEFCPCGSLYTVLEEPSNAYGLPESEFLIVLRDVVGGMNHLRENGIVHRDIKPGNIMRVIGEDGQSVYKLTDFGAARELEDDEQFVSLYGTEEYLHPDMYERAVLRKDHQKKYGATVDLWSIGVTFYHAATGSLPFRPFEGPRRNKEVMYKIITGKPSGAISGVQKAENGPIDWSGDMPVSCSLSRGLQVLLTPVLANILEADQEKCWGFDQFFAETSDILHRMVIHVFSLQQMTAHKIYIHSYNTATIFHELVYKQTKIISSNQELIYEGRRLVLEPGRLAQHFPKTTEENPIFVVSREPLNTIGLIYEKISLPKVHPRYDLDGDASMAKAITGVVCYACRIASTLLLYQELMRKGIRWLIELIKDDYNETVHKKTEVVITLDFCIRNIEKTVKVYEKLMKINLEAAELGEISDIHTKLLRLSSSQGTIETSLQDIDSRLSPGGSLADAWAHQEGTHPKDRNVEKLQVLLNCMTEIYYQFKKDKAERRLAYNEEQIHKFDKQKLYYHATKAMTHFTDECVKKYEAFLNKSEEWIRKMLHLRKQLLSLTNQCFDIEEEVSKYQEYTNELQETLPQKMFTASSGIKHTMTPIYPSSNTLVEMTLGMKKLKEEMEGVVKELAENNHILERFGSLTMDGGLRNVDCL
Description: as §1

p38b MAPK = p38b MAPK (Homo sapiens, UniProt Q15759); assay: Kinase profiling p38b MAPK; conditions: 100 micromolar inhibitor concentration, 100 is no change; for remaining activity at 100 µM: read-out: residual kinase activity, p38b MAPK
Description: as §1

PRK2 = PRK2 (Homo sapiens, UniProt Q16513); assay: Kinase profiling PRK2; conditions: 100 micromolar inhibitor concentration, 100 is no change; for remaining activity at 100 µM: read-out: residual kinase activity, PRK2
Description: as §1

PKCz = target: T2, PKCz (Homo sapiens, UniProt Q05513); assay: Kinase profiling PKCz; conditions: 100 micromolar inhibitor concentration, 100 is no change; for remaining activity at 100 µM: read-out: residual kinase activity, PKCz
T2 sequence (Q05513 1-592): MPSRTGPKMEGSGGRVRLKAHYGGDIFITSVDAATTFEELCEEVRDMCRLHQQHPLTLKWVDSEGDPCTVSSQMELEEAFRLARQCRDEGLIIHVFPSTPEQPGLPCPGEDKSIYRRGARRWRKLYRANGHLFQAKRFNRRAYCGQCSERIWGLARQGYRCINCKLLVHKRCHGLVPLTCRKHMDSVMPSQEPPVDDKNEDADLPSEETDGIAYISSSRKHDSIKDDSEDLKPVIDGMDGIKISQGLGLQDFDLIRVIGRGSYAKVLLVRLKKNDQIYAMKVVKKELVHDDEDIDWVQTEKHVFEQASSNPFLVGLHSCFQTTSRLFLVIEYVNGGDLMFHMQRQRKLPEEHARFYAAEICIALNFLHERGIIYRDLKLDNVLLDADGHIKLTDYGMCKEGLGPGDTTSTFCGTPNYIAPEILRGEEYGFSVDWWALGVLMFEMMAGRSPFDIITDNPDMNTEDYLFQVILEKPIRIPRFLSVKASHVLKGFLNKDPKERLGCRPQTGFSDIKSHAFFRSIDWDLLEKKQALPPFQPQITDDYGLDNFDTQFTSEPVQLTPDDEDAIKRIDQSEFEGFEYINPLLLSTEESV
Description: as §1

VEG-FR = assay: Kinase profiling VEG-FR; conditions: 100 micromolar inhibitor concentration; 100 is no change
Description: as §1

SYK = SYK (Homo sapiens, UniProt P43405); assay: Kinase profiling SYK; conditions: 100 micromolar inhibitor concentration, 100 is no change; for remaining activity at 100 µM: read-out: residual kinase activity, SYK
Description: as §1

PAK4 = PAK4 (Homo sapiens, UniProt O96013); assay: Kinase profiling PAK4; conditions: 100 micromolar inhibitor concentration, 100 is no change; for remaining activity at 100 µM: read-out: residual kinase activity, PAK4
Description: as §1

PKCa = PKCa (Homo sapiens, UniProt P17252); assay: Kinase profiling PKCa; conditions: 100 micromolar inhibitor concentration, 100 is no change; for remaining activity at 100 µM: read-out: residual kinase activity, PKCa
Description: as §1

CAMKKb = CAMKKb (Homo sapiens, UniProt Q96RR4); assay: Kinase profiling CAMKKb; conditions: 100 micromolar inhibitor concentration, 100 is no change; for remaining activity at 100 µM: read-out: residual kinase activity, CAMKKb
Description: as §1

MKK2 = MKK2 (Homo sapiens, UniProt P36507); assay: Kinase profiling MKK2; conditions: 100 micromolar inhibitor concentration, 100 is no change; for remaining activity at 100 µM: read-out: residual kinase activity, MKK2
Description: as §1

Src = Src (Homo sapiens, UniProt P12931); assay: Kinase profiling Src; conditions: 100 micromolar inhibitor concentration, 100 is no change; for remaining activity at 100 µM: read-out: residual kinase activity, Src
Description: as §1

Chain of p38a MAPK (Q16539 whole entry): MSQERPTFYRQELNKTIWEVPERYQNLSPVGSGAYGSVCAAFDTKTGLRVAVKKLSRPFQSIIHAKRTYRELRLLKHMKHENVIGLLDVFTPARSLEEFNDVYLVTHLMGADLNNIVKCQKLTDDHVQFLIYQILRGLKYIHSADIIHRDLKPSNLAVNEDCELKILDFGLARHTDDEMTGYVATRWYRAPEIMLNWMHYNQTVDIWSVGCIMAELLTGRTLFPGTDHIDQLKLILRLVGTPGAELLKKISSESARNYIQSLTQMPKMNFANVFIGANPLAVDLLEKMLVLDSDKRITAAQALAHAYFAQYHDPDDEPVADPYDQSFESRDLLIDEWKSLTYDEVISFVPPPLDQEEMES
Chain of PRK2 (Q16513 whole entry, species assumed): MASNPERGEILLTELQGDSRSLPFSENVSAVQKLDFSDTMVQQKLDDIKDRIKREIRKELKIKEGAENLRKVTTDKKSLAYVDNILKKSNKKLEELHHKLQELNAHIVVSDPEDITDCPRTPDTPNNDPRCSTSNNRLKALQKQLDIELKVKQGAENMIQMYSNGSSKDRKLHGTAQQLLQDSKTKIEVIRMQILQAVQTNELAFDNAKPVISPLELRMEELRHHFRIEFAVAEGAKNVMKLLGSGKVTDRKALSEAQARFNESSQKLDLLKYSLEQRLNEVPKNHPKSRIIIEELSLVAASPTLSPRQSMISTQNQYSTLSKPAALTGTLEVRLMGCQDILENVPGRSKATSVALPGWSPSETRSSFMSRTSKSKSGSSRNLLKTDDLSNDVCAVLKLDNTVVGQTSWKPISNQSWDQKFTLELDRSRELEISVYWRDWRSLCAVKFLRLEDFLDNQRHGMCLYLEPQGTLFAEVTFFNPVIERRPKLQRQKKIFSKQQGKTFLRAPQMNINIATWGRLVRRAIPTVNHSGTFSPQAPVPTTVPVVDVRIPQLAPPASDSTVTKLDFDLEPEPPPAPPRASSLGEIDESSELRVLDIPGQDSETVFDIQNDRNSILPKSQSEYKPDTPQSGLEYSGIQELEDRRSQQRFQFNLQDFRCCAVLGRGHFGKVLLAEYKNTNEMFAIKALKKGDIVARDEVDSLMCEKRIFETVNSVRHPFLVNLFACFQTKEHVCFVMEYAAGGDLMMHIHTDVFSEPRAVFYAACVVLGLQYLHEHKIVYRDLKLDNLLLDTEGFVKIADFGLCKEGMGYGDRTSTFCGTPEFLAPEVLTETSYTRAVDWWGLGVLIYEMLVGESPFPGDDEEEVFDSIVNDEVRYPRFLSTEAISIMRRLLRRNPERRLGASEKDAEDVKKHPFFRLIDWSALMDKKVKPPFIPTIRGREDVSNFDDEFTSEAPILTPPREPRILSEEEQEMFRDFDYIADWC
Chain of SmMLCK (Q15746 923-1914): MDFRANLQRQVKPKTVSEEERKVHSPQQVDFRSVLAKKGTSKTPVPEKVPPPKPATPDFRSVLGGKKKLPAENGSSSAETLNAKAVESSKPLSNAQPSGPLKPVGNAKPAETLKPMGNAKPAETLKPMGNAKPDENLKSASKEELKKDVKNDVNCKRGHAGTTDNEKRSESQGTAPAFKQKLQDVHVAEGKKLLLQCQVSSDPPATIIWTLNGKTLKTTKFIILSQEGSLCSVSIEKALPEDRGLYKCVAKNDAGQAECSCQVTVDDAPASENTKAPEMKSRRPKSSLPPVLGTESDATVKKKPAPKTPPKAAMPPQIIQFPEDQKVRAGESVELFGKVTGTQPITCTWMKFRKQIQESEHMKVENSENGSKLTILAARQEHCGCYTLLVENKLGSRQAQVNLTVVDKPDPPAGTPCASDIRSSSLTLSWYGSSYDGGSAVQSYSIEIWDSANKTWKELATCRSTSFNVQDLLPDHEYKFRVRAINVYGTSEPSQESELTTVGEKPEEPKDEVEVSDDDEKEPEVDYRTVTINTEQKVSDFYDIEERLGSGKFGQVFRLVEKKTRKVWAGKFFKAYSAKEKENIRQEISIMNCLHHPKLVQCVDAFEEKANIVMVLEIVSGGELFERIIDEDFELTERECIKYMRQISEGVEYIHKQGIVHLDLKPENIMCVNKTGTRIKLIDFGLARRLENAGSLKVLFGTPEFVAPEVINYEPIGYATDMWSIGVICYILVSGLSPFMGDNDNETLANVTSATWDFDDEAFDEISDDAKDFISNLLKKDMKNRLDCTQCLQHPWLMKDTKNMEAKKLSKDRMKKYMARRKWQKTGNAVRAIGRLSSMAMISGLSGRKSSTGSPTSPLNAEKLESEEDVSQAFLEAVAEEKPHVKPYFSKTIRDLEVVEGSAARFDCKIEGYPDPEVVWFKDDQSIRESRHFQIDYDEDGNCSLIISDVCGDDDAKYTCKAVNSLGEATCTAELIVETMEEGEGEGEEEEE
Chain of PAK4 (O96013 whole entry, species assumed): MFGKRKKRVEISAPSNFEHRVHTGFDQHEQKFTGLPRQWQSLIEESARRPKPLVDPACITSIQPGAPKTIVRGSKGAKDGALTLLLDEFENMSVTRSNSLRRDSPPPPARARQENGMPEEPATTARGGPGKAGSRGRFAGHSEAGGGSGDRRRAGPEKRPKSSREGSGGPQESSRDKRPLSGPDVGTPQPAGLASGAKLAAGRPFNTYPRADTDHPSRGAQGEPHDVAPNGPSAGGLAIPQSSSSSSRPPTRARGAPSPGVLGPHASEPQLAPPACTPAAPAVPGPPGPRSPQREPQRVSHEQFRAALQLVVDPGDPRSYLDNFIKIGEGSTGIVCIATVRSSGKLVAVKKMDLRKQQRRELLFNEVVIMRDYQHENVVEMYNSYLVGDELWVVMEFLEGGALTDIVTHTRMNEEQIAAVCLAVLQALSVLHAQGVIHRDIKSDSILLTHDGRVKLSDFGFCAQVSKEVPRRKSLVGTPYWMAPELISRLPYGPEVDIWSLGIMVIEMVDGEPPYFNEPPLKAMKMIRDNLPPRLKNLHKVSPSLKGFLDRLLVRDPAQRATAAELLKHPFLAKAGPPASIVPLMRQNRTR
Chain of Src (P12931 whole entry, species assumed): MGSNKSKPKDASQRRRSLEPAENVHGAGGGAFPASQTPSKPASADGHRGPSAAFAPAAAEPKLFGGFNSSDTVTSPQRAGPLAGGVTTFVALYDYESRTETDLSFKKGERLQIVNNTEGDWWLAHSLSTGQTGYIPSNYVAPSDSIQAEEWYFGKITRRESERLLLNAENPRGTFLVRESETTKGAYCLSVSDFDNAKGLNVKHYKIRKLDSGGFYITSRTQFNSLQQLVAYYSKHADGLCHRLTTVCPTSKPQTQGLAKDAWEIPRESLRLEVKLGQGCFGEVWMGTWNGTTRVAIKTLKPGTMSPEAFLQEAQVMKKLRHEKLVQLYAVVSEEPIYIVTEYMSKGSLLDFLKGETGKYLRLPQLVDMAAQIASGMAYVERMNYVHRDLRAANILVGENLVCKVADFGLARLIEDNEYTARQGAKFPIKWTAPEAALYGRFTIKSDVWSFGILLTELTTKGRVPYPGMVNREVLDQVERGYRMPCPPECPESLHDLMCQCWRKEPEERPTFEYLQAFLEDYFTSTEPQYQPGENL
Chain of p38b MAPK (Q15759 whole entry): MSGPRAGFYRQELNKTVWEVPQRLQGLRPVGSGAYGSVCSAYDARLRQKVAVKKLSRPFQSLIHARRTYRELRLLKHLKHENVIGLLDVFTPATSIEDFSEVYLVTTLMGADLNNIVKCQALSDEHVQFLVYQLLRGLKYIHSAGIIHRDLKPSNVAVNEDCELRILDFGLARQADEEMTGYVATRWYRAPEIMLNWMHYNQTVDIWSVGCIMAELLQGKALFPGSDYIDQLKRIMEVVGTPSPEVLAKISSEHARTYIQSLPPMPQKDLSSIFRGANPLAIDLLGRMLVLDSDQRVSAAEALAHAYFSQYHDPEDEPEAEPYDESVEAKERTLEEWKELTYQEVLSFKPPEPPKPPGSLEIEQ
Chain of MARK3 (P27448 whole entry, species assumed): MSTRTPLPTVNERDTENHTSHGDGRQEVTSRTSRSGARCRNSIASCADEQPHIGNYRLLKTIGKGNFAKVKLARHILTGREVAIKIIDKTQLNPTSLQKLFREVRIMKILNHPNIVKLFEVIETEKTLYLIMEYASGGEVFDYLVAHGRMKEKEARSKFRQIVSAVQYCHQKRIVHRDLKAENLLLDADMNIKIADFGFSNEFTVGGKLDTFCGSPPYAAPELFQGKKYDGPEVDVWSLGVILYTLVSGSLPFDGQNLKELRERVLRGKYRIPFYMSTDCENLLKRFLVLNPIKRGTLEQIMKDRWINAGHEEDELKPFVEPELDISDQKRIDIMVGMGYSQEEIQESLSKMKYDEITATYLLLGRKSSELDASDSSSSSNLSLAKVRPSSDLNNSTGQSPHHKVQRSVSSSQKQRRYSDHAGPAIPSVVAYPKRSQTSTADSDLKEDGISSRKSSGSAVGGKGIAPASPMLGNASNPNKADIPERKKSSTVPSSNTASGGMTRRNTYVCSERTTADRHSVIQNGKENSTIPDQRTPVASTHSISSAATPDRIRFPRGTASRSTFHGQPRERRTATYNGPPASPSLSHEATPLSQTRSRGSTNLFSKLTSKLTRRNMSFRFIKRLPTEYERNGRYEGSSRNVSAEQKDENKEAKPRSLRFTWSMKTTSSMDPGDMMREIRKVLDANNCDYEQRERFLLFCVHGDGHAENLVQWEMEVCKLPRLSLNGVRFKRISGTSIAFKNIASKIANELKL
Chain of MKK1 (Q02750 whole entry, species assumed): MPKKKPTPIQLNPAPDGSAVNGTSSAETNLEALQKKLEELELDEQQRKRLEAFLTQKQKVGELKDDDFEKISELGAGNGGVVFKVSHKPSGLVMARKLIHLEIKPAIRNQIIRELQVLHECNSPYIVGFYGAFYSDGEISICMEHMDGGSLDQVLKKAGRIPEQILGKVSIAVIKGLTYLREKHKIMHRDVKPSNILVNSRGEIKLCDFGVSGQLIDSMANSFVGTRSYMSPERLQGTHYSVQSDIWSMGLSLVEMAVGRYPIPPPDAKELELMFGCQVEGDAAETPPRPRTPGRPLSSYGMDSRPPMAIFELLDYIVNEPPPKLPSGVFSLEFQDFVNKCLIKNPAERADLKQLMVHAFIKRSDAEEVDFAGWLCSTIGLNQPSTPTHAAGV

SMILES	residual kinase activity, MKK1 (MKK1)	residual kinase activity, Lck (Lck)	residual kinase activity, IGF-1R (IGF-1R)	residual kinase activity, SmMLCK (SmMLCK)	residual kinase activity, MARK3 (MARK3)	residual kinase activity, ROCK 2 (ROCK 2)	residual kinase activity, p38a MAPK (p38a MAPK)	residual kinase activity, PKA (PKA)	residual kinase activity, TBK1 (TBK1)	residual kinase activity, p38b MAPK (p38b MAPK)	residual kinase activity, PRK2 (PRK2)	residual kinase activity, PKCz (PKCz)	residual kinase activity, VEG-FR (VEG-FR)	residual kinase activity, SYK (SYK)	residual kinase activity, PAK4 (PAK4)	residual kinase activity, PKCa (PKCa)	residual kinase activity, CAMKKb (CAMKKb)	residual kinase activity, MKK2 (MKK2)	residual kinase activity, Src (Src)	other results
CC(=O)Nc1nc2ccccc2s1 [Compound 03-32]	81	91	74	81	85	91	91	91	88	107	81	126	66	116	75	104	101	96	113	
O=C(Nc1nc2cc(O)ccc2s1)c1cccnc1 [Compound 03-33]	89	105	50	52	85	53	105	102	97	87	85	105	50	86	92	105	69	85	75	
O=C(Nc1nc2ccc(O)cc2s1)c1ccccc1 [Compound 03-60]	49	92	18	15	33	11	74	97	36	76	27	80	5	64	35	97	37	90	33	
CC(=O)Nc1nc2cc(C(F)(F)F)ccc2s1 [Compound 03-73]													33							remaining activity at 100 µM (MKK1): 96%; remaining activity at 100 µM (Lck): 101%; remaining activity at 100 µM (IGF-1R): 77%; remaining activity at 100 µM (SmMLCK): 71%; remaining activity at 100 µM (MARK3): 63%; remaining activity at 100 µM (ROCK 2): 83%; remaining activity at 100 µM (p38a MAPK): 92%; remaining activity at 100 µM (PKA): 124%; remaining activity at 100 µM (TBK1): 64%; remaining activity at 100 µM (p38b MAPK): 97%; remaining activity at 100 µM (PRK2): 91%; remaining activity at 100 µM (PKCz): 97%; remaining activity at 100 µM (SYK): 74%; remaining activity at 100 µM (PAK4): 71%; remaining activity at 100 µM (PKCa): 111%; remaining activity at 100 µM (CAMKKb): 65%; remaining activity at 100 µM (MKK2): 98%; remaining activity at 100 µM (Src): 74%
CC(=O)Nc1nc2cc(C)ccc2s1 [Compound 03-76]	73	120	75	62	71	79	92	105	78	83	84	101	50	72	101	94	71	155	79	
CC(=O)Nc1nc2cc(F)ccc2s1 [Compound 03-77]													48							remaining activity at 100 µM (MKK1): 87%; remaining activity at 100 µM (Lck): 96%; remaining activity at 100 µM (IGF-1R): 58%; remaining activity at 100 µM (SmMLCK): 66%; remaining activity at 100 µM (MARK3): 58%; remaining activity at 100 µM (ROCK 2): 37%; remaining activity at 100 µM (p38a MAPK): 88%; remaining activity at 100 µM (PKA): 95%; remaining activity at 100 µM (TBK1): 74%; remaining activity at 100 µM (p38b MAPK): 79%; remaining activity at 100 µM (PRK2): 74%; remaining activity at 100 µM (PKCz): 110%; remaining activity at 100 µM (SYK): 82%; remaining activity at 100 µM (PAK4): 97%; remaining activity at 100 µM (PKCa): 101%; remaining activity at 100 µM (CAMKKb): 74%; remaining activity at 100 µM (MKK2): 101%; remaining activity at 100 µM (Src): 80%
O=C(Nc1nc2ccc(O)cc2s1)c1ccncc1 [Compound 08-42]	87	79	88	33	68	43	99	91	61	86	44	76	20	90	69	81	68	72	62	
